Reference: patent US8513232B2, “Substituted spirocyclic piperidine derivatives as histamine-3 (H3) receptor ligands” (Cephalon, Inc., priority 2008, dated 2013)
Like-named read-outs stand apart in the source and are kept apart here.

Legend:
human H3 receptor = target: T1, human H3 receptor (Homo sapiens, UniProt Q9Y5N1); assay: Human H3 radioligand binding ([3H]-N-alpha-methylhistamine, SPA)
T1 construct: expressed in transfected cells
Procedure, shortened: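 Compounds (0.01 nM-30 μM) competed with approximately 1 nM [3H]-N-alpha-methylhistamine for human H3 receptor in membranes of stably transfected CHO cells, 10 μg protein per well, in Tris-HCl pH 7.4/MgCl2/BSA buffer for 4 h at room temperature. Bound radioligand measured by scintillation proximity; 10 μM clobenpropit gave non-specific binding.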

[1] = target: T2, rat histamine H3 receptor (Rattus norvegicus, UniProt Q9QYN8); assay: Rat H3 radioligand binding ([3H]-N-alpha-methylhistamine, SPA)
T2 construct: encoding the entire 445-amino-acid rat histamine H3 receptor; expressed in transfected cells; membrane preparation
T2 sequence (Q9QYN8 whole entry): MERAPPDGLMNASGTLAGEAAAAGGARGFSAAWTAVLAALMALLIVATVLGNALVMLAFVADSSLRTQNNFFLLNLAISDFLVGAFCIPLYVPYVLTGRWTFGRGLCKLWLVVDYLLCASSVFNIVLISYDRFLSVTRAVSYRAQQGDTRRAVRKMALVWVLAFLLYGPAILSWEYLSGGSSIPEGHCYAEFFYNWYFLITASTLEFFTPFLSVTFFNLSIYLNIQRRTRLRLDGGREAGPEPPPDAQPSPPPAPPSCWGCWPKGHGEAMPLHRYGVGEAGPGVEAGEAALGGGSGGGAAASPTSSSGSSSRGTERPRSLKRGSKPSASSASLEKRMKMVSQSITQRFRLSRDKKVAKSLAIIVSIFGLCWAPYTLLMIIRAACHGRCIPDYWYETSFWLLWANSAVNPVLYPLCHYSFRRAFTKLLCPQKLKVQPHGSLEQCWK
Procedure, shortened: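 SPA-bead binding assay using [3H]-N-alpha-methylhistamine (approximately 1 nM final) with test compounds from 0.01 nM to 30 μM. Rat H3 receptor membranes came from stably transfected CHO-A3 cells; incubation ran 4 h at room temperature, in the dark, in Tris pH 7.4 buffer with MgCl2 and BSA. Clobenpropit (10 μM) gave non-specific binding.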

[2] = Human H3 binding, Table B, Examples 136-362, read-out: hum H3 binding Ki
[3] = Rat H3 binding, Table B, Examples 136-362, read-out: rat H3 binding Ki
[4] = human H3 binding, Table D, read-out: Human H3 Ki
[5] = rat H3 binding, Table D, read-out: Rat H3 Ki
[6] = Table A, human H3 binding, read-out: Human Ki
[7] = Table A, rat H3 binding, read-out: Rat Ki
[8] = Table C, human H3 binding, read-out: Human H3 Ki
[9] = Table C, rat H3 binding, read-out: Rat H3 Ki

T1 sequence (Q9Y5N1 whole entry): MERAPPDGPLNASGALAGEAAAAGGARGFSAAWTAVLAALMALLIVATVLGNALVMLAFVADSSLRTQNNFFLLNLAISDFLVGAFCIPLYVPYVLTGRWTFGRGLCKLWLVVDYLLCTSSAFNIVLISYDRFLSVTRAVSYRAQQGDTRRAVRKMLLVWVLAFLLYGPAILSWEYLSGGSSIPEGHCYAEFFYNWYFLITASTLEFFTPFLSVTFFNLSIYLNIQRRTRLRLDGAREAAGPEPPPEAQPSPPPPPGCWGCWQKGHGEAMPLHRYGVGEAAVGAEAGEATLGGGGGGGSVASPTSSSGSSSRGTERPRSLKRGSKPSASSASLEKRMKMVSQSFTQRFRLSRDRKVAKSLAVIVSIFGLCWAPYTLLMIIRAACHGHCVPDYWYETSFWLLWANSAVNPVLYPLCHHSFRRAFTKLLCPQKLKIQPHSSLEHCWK

Row | melting point [°C] | Ki (human H3 receptor; [4]) [nM] | Ki [1, 5] [nM] | SMILES | other results
1 | 78 to 80 | – | – | COCCN(C)C(=O)c1c(F)cc(-c2ccc3c(c2)COC2(CCN(C4CCC4)CC2)O3)cc1F [Example 359] | Ki (human H3 receptor; [2]): < 200 nM; Ki [1, 3]: < 200 nM
2 | 194 to 197 | < 200 | < 200 | O=c1cc(-c2ccc3c(c2)COC2(CCN(C4CCC4)CC2)O3)c(Cl)cn1CC(F)(F)F [Example 781] | –
3 | 240 to 241 | – | – | O=S1(=O)CCC(O)(c2ccc3c(c2)COC2(CCN(C4CCC4)CC2)O3)CC1 [Example 517] | Ki (human H3 receptor; read-out: Human H3 Ki): < 200 nM; Ki ([1]; read-out: Rat H3 kI): < 200 nM
4 | 72 to 73 | < 200 | < 200 | COc1ccc(-c2ccc3c(c2)CCC2(CCN(C4CCC4)CC2)O3)c(C)n1 [Example 797] | –
5 | 213 to 215 | – | – | O=S1(=O)CCC(O)(c2ccc3c(c2)CCC2(CCN(C4CCC4)CC2)O3)CC1 [Example 535] | Ki (human H3 receptor; read-out: Human H3 Ki): < 200 nM; Ki ([1]; read-out: Rat H3 kI): < 200 nM
6 | 213 to 215 | – | – | O=C(Nc1ccc2c(c1)CCC1(CCN(C3CCC3)CC1)O2)c1ccnnc1 [Example 289] | Ki (human H3 receptor; [2]): < 200 nM; Ki [1, 3]: < 200 nM
7 | 107 to 108.5 | – | – | COCCNC(=O)c1ccc(-c2ccc3c(c2)COC2(CCN(C4CCC4)CC2)O3)cc1F [Example 202] | Ki (human H3 receptor; [2]): < 200 nM; Ki [1, 3]: < 200 nM
8 | 147.8 to 149 | – | – | CNC(=O)c1ccc(-c2ccc3c(c2)COC2(CCN(C4CCC4)CC2)O3)cc1F [Example 36] | Ki (human H3 receptor; [6]): < 200 nM; Ki [1, 7]: < 200 nM
9 | 201 to 203 | – | – | Nc1ccc(-c2ccc3c(c2)COC2(CCN(C4CCC4)CC2)O3)cn1 [Example 566] | Ki (human H3 receptor; read-out: Human H3 Ki): < 200 nM; Ki ([1]; read-out: Rat H3 kI): < 200 nM
10 | 74 to 76 | < 200 | < 200 | Cc1noc(CCc2ccc3c(c2)COC2(CCN(C4CCC4)CC2)O3)n1 [Example 676] | –
11 | 209 to 211 | < 200 | < 200 | O=C(NC1CCOCC1)c1ccc(-c2ccc3c(c2)COC2(CCN(C4CCC4)CC2)O3)cc1Cl [Example 606] | –
12 | 282 to 284 | < 200 | < 200 | COc1cc(C(=O)O)ccc1-c1ccc2c(c1)COC1(CCN(C3CCC3)CC1)O2 [Example 699] | –
13 | 146 to 148 | – | – | OC1(c2ccc3c(c2)CCC2(CCN(C4CCC4)CC2)O3)CCSCC1 [Example 532] | Ki (human H3 receptor; read-out: Human H3 Ki): < 200 nM; Ki ([1]; read-out: Rat H3 kI): < 200 nM
14 | 159.8 to 160.7 | – | – | N#Cc1ccc(-c2ccc3c(c2)COC2(CCN(C4CCC4)CC2)O3)cn1 [Example 34] | Ki (human H3 receptor; [6]): < 200 nM; Ki [1, 7]: < 200 nM
15 | 187 to 189 | < 200 | 200 to 1000 | CN(C)C(=O)/C=C/c1ccc2c(c1)CCC1(CCN(C3CCC3)CC1)O2 [Example 594] | –
16 | 167 to 169 | < 200 | 200 to 1000 | O=C(CCc1ccc2c(c1)COC1(CCN(C3CCC3)CC1)O2)NC1CCOCC1 [Example 645] | –
17 | 62.4 to 64.7 | < 200 | < 200 | Cc1nnc(C2CCC(c3ccc4c(c3)COC3(CCN(C5CCC5)CC3)O4)CC2)o1 (stereo not drawn) [Example 707] | –
18 | 221.5 to 223.7 | < 200 | < 200 | O=c1[nH]cc(-c2ccc3c(c2)COC2(CCN(C4CCC4)CC2)O3)cc1Cl [Example 658] | –
19 | 259 to 261 | – | – | c1cc2c(cc1O[C@H]1CCOC1)CCC1(CCN(C3CCC3)CC1)O2 [Example 450] | Ki (human H3 receptor; read-out: Human H3 Ki): < 200 nM; Ki ([1]; read-out: Rat H3 kI): < 200 nM
20 | 165 to 167 | < 200 | < 200 | CN(C)C(=O)c1cc(COc2ccc3c(c2)CCC2(CCN(C4CCC4)CC2)O3)ccn1 [Example 623] | –
21 | 185 to 186 | – | – | O=C(c1ccc(-c2ccc3c(c2)COC2(CCN(C4CCC4)CC2)O3)cc1)N1CC[C@@H](F)C1 [Example 69] | Ki (human H3 receptor; [6]): < 200 nM; Ki [1, 7]: < 200 nM
22 | 80 to 82 | – | – | CNC(=O)c1ccc(-c2ccc3c(c2)CCC2(CCN(C4CCC4)CC2)O3)cc1C#N [Example 246] | Ki (human H3 receptor; [2]): < 200 nM; Ki [1, 3]: < 200 nM
23 | 168 to 169 | – | – | Clc1ccc(-c2ccc3c(c2)CCC2(CCN(C4CCC4)CC2)O3)cn1 [Example 371] | Ki (human H3 receptor; [8]): < 200 nM; Ki [1, 9]: < 200 nM
24 | 138 to 139 | – | – | FC(F)(F)c1cccnc1N1CCN(c2ccc3c(c2)CCC2(CCN(C4CCC4)CC2)O3)CC1 [Example 367] | Ki (human H3 receptor; [8]): < 200 nM; Ki [1, 9]: < 200 nM
25 | 264 to 267 | – | – | CNC(=O)C1CCN(c2ccc3c(c2)CCC2(CCN(C4CCC4)CC2)O3)CC1 [Example 396] | Ki (human H3 receptor; [8]): < 200 nM; Ki [1, 9]: < 200 nM

Row | melting point [°C] | Ki (human H3 receptor; [4]) [nM] | Ki [1, 5] [nM] | SMILES | other results
26 | 131 to 133 | < 200 | < 200 | COC(=O)/C=C/c1ccc2c(c1)COC1(CCN(C3CCC3)CC1)O2 [Example 618] | –
27 | 175 to 177 | – | – | O=C(Nc1ccc2c(c1)COC1(CCN(C3CCC3)CC1)O2)c1cnco1 [Example 286] | Ki (human H3 receptor; [2]): < 200 nM; Ki [1, 3]: < 200 nM
28 | 185 to 187 | – | – | O=C(NCCO)c1ccc(-c2ccc3c(c2)COC2(CCN(C4CCC4)CC2)O3)cc1 [Example 50] | Ki (human H3 receptor; [6]): < 200 nM; Ki [1, 7]: < 200 nM
29 | 110 to 112 | – | – | CNC(=O)c1c(F)cc(-c2ccc3c(c2)CCC2(CCN(C4CCC4)CC2)O3)cc1F [Example 226] | Ki (human H3 receptor; [2]): < 200 nM; Ki [1, 3]: < 200 nM
30 | 208 to 210 | – | – | CNC(=O)c1ccc(-c2ccc3c(c2)COC2(CCN(C4CCC4)CC2)O3)cn1 [Example 160] | Ki (human H3 receptor; [2]): < 200 nM; Ki [1, 3]: < 200 nM
31 | 152 to 154 | < 200 | < 200 | COc1ccc(-c2ccc3c(c2)COC2(CCN(C(C)(C)C)CC2)O3)cn1 [Example 732] | –
32 | 76 to 80 | – | – | CN(C)C(=O)c1cccc2c1ccn2-c1ccc2c(c1)COC1(CCN(C3CCC3)CC1)O2 [Example 85] | Ki (human H3 receptor; [6]): < 200 nM; Ki [1, 7]: < 200 nM
33 | 58 to 60 | < 200 | 200 to 1000 | Cc1cccc(C)c1-c1ccc2c(c1)COC1(CCN(C3CCC3)CC1)O2 [Example 756] | –
34 | 165 to 167 | – | – | O=C(C1CCN(c2ccc3c(c2)CCC2(CCN(C4CCC4)CC2)O3)CC1)N1CCOCC1 [Example 434] | Ki (human H3 receptor; [8]): < 200 nM; Ki [1, 9]: < 200 nM
35 | 159 to 161 | < 200 | < 200 | CS(=O)(=O)c1ccc(-c2ccc3c(c2)COC2(CCN(C4CCC4)CC2)O3)s1 [Example 652] | –
36 | 170 to 173 | < 200 | < 200 | Cn1cc(-c2ccc3c(c2)COC2(CCN(C4CCC4)CC2)O3)ccc1=O [Example 659] | –
37 | 161 to 162 | < 200 | < 200 | O=C(c1ccc(-c2ccc3c(c2)COC2(CCN(C4CCC4)CC2)O3)cc1F)N1CCOCC1 [Example 642] | –
38 | 101 to 103 | – | – | OCCn1cc(-c2ccc3c(c2)CCC2(CCN(C4CCC4)CC2)O3)cn1 [Example 198] | Ki (human H3 receptor; [2]): < 200 nM; Ki [1, 3]: < 200 nM
39 | 212 to 213 | – | – | FC(F)(F)c1ccc(N2CCN(c3ccc4c(c3)CCC3(CCN(C5CCC5)CC3)O4)CC2)nc1 [Example 372] | Ki (human H3 receptor; [8]): < 200 nM; Ki [1, 9]: < 200 nM
40 | 78.5 to 79.8 | – | – | Cc1cc(-c2ccc3c(c2)CCC2(CCN(C4CCC4)CC2)O3)ccc1C(=O)NCCO [Example 238] | Ki (human H3 receptor; [2]): < 200 nM; Ki [1, 3]: < 200 nM
41 | 137 to 139 | – | – | Cc1ccc(-c2ccc3c(c2)COC2(CCN(C4CCC4)CC2)O3)cn1 [Example 31] | Ki (human H3 receptor; [6]): < 200 nM; Ki [1, 7]: < 200 nM
42 | 186 to 188 | – | – | O=c1cc(Oc2ccc3c(c2)CCC2(CCN(C4CCC4)CC2)O3)cc[nH]1 [Example 493] | Ki (human H3 receptor; read-out: Human H3 Ki): < 200 nM; Ki ([1]; read-out: Rat H3 kI): < 200 nM
43 | 125 to 126 | – | – | OC1(c2ccc3c(c2)COC2(CCN(C4CCC4)CC2)O3)CCSC1 (stereo not drawn) [Example 471] | Ki (human H3 receptor; read-out: Human H3 Ki): < 200 nM; Ki ([1]; read-out: Rat H3 kI): < 200 nM
44 | 118 to 120 | – | – | c1cc2c(cc1N1CCC1)CCC1(CCN(C3CCC3)CC1)O2 [Example 438] | Ki (human H3 receptor; [8]): < 200 nM; Ki [1, 9]: < 200 nM
45 | 151 to 154 | < 200 | < 200 | Cc1cc(=O)n(C)cc1-c1ccc2c(c1)COC1(CCN(C3CCC3)CC1)O2 [Example 709] | –
46 | 52 to 57 | – | – | c1ccc(Nc2ccc3c(c2)COC2(CCN(C4CCC4)CC2)O3)cc1 [Example 124] | Ki (human H3 receptor; [6]): < 200 nM; Ki [1, 7]: < 200 nM
47 | 212 to 215 | – | – | N#Cc1cccc(C(=O)Nc2ccc3c(c2)COC2(CCN(C4CCC4)CC2)O3)c1 [Example 153] | Ki (human H3 receptor; [2]): < 200 nM; Ki [1, 3]: < 200 nM
48 | 217 to 219 | < 200 | < 200 | COCc1cc(=O)[nH]cc1-c1ccc2c(c1)COC1(CCN(C3CCC3)CC1)O2 [Example 798] | –
49 | 243 to 245 | – | – | O=C(C1CC1)N1CCC(Oc2ccc3c(c2)CCC2(CCN(C4CCC4)CC2)O3)CC1 [Example 435] | Ki (human H3 receptor; [8]): < 200 nM; Ki [1, 9]: < 200 nM
